Test results from patent US11667621B2, “Antiestrogen compounds” (STEVENS INSTITUTE OF TECHNOLOGY, priority 2018, dated 2023).
Numbering of substitutions follows the chain as printed.

How the values were obtained:
CRISPR KI D538G = biological target: T1, CRISPR KI D538G (Homo sapiens, UniProt P03372, D538G); assay: Luciferase assay, CRISPR KI D538G clones; assay type: cell-based; conditions: for CRISPR KI (% Inhibition) D538G cl. 50: clone 50; for CRISPR KI (% Inhibition) D538G cl. 65: clone 65
T1 construct: endogenous in cells; host or cells: CRISPR knock-in clones (cl. 50, cl. 65)
T1 sequence (P03372 1-595 D538G): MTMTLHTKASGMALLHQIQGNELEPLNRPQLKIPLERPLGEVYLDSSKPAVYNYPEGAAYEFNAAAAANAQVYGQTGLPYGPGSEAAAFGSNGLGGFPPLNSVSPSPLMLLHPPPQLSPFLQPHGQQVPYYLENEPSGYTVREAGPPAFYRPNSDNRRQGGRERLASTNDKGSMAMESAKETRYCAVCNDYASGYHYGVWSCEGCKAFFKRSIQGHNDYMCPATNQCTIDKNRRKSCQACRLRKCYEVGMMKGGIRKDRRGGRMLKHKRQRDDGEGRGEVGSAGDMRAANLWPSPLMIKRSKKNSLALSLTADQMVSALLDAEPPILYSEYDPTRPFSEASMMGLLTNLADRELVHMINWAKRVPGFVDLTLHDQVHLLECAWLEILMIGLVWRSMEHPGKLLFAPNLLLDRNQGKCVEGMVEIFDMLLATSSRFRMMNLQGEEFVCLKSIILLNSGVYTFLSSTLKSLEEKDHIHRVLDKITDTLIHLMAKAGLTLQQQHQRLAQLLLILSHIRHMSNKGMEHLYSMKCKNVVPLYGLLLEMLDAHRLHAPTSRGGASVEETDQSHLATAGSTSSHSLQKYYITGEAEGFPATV
Protocol: Luciferase assays were performed to determine the efficacy of the example compounds at inhibiting ER or its mutants' ability to activate transcription of genes.
Cells were plated at a density of 0.15×10^6 per well of 24 well plates one day prior to transfection. Cells were transfected with 125 ng (per well) of HA-ERα wild type or mutants, 315 ng (per well) of 3×-ERE-TATA-Luciferase reporter and 50 ng (per well) of pRL-TK Renilla Luciferase plasmid, using Xtremegene (Roche). The cells were treated with the various compounds or Fulvestrant at the indicated doses a day after transfection for 24 hours and luciferase activities were determined using the Dual-Luciferase® Reporter Assay System (Promega) according to manufacturer's instructions. Luciferase bioluminescence measurements were performed with the Veritas™ Microplate Luminometer (Promega). All experiments were conducted in triplicate and the Firefly luciferase activity was normalized with the Renilla luciferase activity of each sample.

HA-ERα L536R = biological target: T2, HA-ERα L536R (Homo sapiens, UniProt P03372, L536R); assay: Luciferase assay, overexpressed ER (3×-ERE-TATA-Luciferase reporter); assay type: cell-based; conditions: compound concentration 1 μM, 24 hours
T2 construct: HA; expressed in transfected cells
T2 sequence (P03372 1-595 L536R): T1 sequence (P03372 1-595 D538G) with L536R, G538D
In short: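 Cells transfected with HA-ERα wild type or mutant, 3×-ERE-TATA firefly luciferase reporter and pRL-TK Renilla, then treated one day later with compound for 24 h.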

[1] = biological target: T3, full length human estrogen receptor a (Homo sapiens, UniProt P03372); assay: Competitive radiometric binding assay (RBA), tritiated estradiol tracer; conditions: relative to estradiol = 100; average SD of 2-3 determinations
T3 construct: purified, full-length human estrogen receptor a from Invitrogen; purchased Invitrogen
T3 sequence (P03372 1-595): T1 sequence (P03372 1-595 D538G) with G538D
Protocol: Tritiated estradiol was obtained from Perkin Elmer and purified, full-length human estrogen receptor a from Invitrogen.
Competitive radiometric binding assays (RBA) were performed on 96-well microtiter filter plates (Millipore), using full length human estrogen receptor a, with tritiated estradiol as tracer, as previously described (Carlson K E, Choi I, Gee A, Katzenellenbogen B S, Katzenellenbogen J A. Altered ligand binding properties and enhanced stability of a constitutively active estrogen receptor: evidence that an open pocket conformation is required for ligand interaction. Biochemistry 1997, 36(48), 14897-14905). After incubation on ice for 18-24 h, ERα-bound tracer was absorbed onto hydroxyapatite (BioRad), washed with buffer, and measured by scintillation counting. RBA values are the average SD of 2-3 determinations.

SMILES | CRISPR KI (% Inhibition) D538G cl. 50 (CRISPR KI D538G) [%] | CRISPR KI (% Inhibition) D538G cl. 65 (CRISPR KI D538G) [%] | inhibition at 1 µM (HA-ERα L536R) [%] | RBA (estradiol = 100) [1]
CC(C)(C)OC(=O)N[C@@H](Cc1c[nH]c2ccccc12)C(=O)NCCCCOc1ccc(C(=C2C3CC4CC(C3)CC2C4)c2ccc(O)cc2)cc1 [Example 1, (S)-tert-Butyl (1-((4-(4-(adamantan-2-ylidene(4-hydroxyphenyl)methyl)-phenoxy)butyl)amino)-3-(1H-indol-3-yl)-1-oxopropan-2-yl)carbamate] | 15 | 71 | 70 | 20 ± 6
CC12CC3CC(C)(C1)CC(C(=O)NCCCCOc1ccc(C(=C4C5CC6CC(C5)CC4C6)c4ccc(O)cc4)cc1)(C3)C2 [Example 7, N-(4-(4-(Adamantan-2-ylidene(4-hydroxyphenyl)methyl)phenoxy)butyl)-3,5-dimethyladamantane-1-carboxamide] | 15 | 44 | 77 | 6.0 ± 0.1
O=C(NCCCCOc1ccc(C(=C2C3CC4CC(C3)CC2C4)c2ccc(O)cc2)cc1)[C@H]1C[C@@H]2C=C[C@H]1C2 [Example 9, (1R, 2S, 4R)—N-(4-(4-(Adamantan-2-ylidene(4-hydroxyphenyl)methyl)phenoxy)-butyl)bicyclo[2.2.1]hept-5-ene-2-carboxamide] | 34 | 72 | 89 | 37 ± 0.3
O=C(NCCCCOc1ccc(C(=C2C3CC4CC(C3)CC2C4)c2ccc(O)cc2)cc1)C1CCCCCC1 [Example 12, N-(4-(4-(Adamantan-2-ylidene(4-hydroxyphenyl)methyl)phenoxy)butyl)-cycloheptanecarboxamide] | 36 | 80 | 87 | 30 ± 5
O=C(NCCCCOc1ccc(C(=C2C3CC4CC(C3)CC2C4)c2ccc(O)cc2)cc1)C1CCC(F)(F)CC1 [Example 13, N-(4-(4-(Adamantan-2-ylidene(4-hydroxyphenyl)methyl)phenoxy)butyl)-4,4-difluorocyclohexanecarboxamide] | 32 | 77 | 90 | 30 ± 0.1
O=C(NCCCCOc1ccc(C(=C2C3CC4CC(C3)CC2C4)c2ccc(O)cc2)cc1)[C@H]1CC[C@H](C(F)(F)F)CC1 [Example 14, (trans)-N-(4-(4-(Adamantan-2-ylidene(4-hydroxyphenyl)methyl)phenoxy)-butyl)-4-(trifluoromethyl)cyclohexanecarboxamide] | 67 | 73 | 82 | 10 ± 0.4

Results, then the compound that gave them:

CRISPR KI (% Inhibition) D538G cl. 50 (CRISPR KI D538G) [%] | CRISPR KI (% Inhibition) D538G cl. 65 (CRISPR KI D538G) [%] | inhibition at 1 µM (HA-ERα L536R) [%] | RBA (estradiol = 100) [1] | SMILES
68 | 73 | 70 | 11 ± 3 | O=C(NCCCCOc1ccc(C(=C2C3CC4CC(C3)CC2C4)c2ccc(O)cc2)cc1)C12CC3CC(CC(C3)C1)C2 [Example 6, N-(4-(4-(Adamantan-2-ylidene(4-hydroxyphenyl)methyl)phenoxy)-butyl)adamantane-1-carboxamide]
39 | 78 | 84 | 17 ± 2 | O=C(NCCCCOc1ccc(C(=C2C3CC4CC(C3)CC2C4)c2ccc(O)cc2)cc1)C12CC3CC(CC1C3)C2 [Example 8, N-(4-(4-((Adamantan-2-ylidene)(4-hydroxyphenyl)methyl)phenoxy)butyl)-hexahydro-2,5-methanopentalene-3a(1H)-carboxamide]
19 | 65 | 78 | 70 ± 1 | O=C(NCCCCOc1ccc(C(=C2C3CC4CC(C3)CC2C4)c2ccc(O)cc2)cc1)C1CCC1 [Example 10, N-(4-(4-(Adamantan-2-ylidene(4-hydroxyphenyl)methyl)phenoxy)butyl)-cyclobutanecarboxamide]
74 | 84 | 79 | 28 ± 6 | O=C(NCCCCOc1ccc(C(=C2C3CC4CC(C3)CC2C4)c2ccc(O)cc2)cc1)C1CCCCC1 [Example 11, N-(4-(4-(Adamantan-2-ylidene(4-hydroxyphenyl)methyl)phenoxy)butyl)-cyclohexanecarboxamide]
